Reference: patent US8735414B2 (priority 2009, dated 2014)

What was measured:
[1] = system: bicistronic HCV replicon (replicon RNA, GenBank Accession No. AJ242654); test: HCV Replicon Assay; assay type: cell-based; settings: Hepatitis C virus, 72 h, read-out: Replicon IC50

SMILES | IC50 [1] | melting point
CCc1cc2c(cc1F)c(C#N)c(-c1ccc(S(=O)(=O)N[C@@H](C)C(F)(F)F)cn1)n2C1CCC1 [compound 640, 6-(3-cyano-1-cyclobutyl-6-ethyl-5-fluoro-1H-indol-2-yl)-N-[(2S)-1,1,1-trifluoropropan-2-yl]pyridine-3-sulfonamide] | < 500 nM | 205 to 206 °C
Cc1ccc2c(C#N)c(-c3ncc(S(=O)(=O)N[C@@H](C)C(F)(F)F)cn3)n(C3CCCC3)c2c1 [compound 404, 2-(3-cyano-1-cyclopentyl-6-methyl-1H-indol-2-yl)-N-[(2S)-1,1,1-trifluoropropan-2-yl]pyrimidine-5-sulfonamide] | < 500 nM | 223 to 224 °C
Cc1ccc(-n2c(-c3ccc(S(=O)(=O)N[C@@H](C)C(F)(F)F)cn3)c(C#N)c3cc(F)c(C)cc32)nc1 [compound 885, 6-[3-cyano-5-fluoro-6-methyl-1-(5-methylpyridin-2-yl)-1H-indol-2-yl]-N-[(2S)-1,1,1-trifluoropropan-2-yl]pyridine-3-sulfonamide] | < 500 nM | 250 to 254 °C
CC(C)NS(=O)(=O)c1cnc(-c2c(C(N)=O)c3ccc(OC(F)F)cc3n2C2CCCCC2)nc1 [compound 747, 1-cyclohexyl-6-(difluoromethoxy)-2-[5-(propan-2-ylsulfamoyl)pyrimidin-2-yl]-1H-indole-3-carboxamide] | < 500 nM | 216 to 218 °C
N#Cc1c(-c2ccc(S(=O)(=O)NC(CF)CF)cn2)n(CC2CC2)c2cc(Cl)c(F)cc12 [compound 110, 6-[6-chloro-3-cyano-1-(cyclopropylmethyl)-5-fluoro-1H-indol-2-yl]-N-(1,3-difluoropropan-2-yl)pyridine-3-sulfonamide] | < 500 nM | 202 to 204 °C
C[C@H](NS(=O)(=O)c1cnc(-c2c(C#N)c3cc(F)ccc3n2CC2CC2)nc1)C1CC1 [compound 531, 2-[3-cyano-1-(cyclopropylmethyl)-5-fluoro-1H-indol-2-yl]-N-[(1S)-1-cyclopropylethyl]pyrimidine-5-sulfonamide] | < 500 nM | 184 to 188 °C
C[C@@H](NS(=O)(=O)c1ccc(-c2c(C#N)c3cc(C(F)F)ccc3n2C2CCCC2)nc1)C(F)(F)F [compound 538, 6-[3-cyano-1-cyclopentyl-5-(difluoromethyl)-1H-indol-2-yl]-N-[(2R)-1,1,1-trifluoropropan-2-yl]pyridine-3-sulfonamide] | < 500 nM | 186 to 188 °C
Cc1ccc2c(c1)c(C#N)c(-c1ncc(S(=O)(=O)NC(C)C)cn1)n2C1CCC1 [compound 121, 2-(3-cyano-1-cyclobutyl-5-methyl-1H-indol-2-yl)-N-(propan-2-yl)pyrimidine-5-sulfonamide] | < 500 nM | 134 to 138 °C
CC(C)NS(=O)(=O)c1cnc(-c2c(C#N)c3ccc(Cl)cc3n2C2CCC2)nc1 [compound 115, 2-(6-chloro-3-cyano-1-cyclobutyl-1H-indol-2-yl)-N-(propan-2-yl)pyrimidine-5-sulfonamide] | < 500 nM | 228 to 229 °C
CCc1cc2c(cc1F)c(C(N)=O)c(-c1ccc(NS(=O)(=O)C(C)(C)C)nc1)n2C1CCCCC1 [compound 1037, 2-{6-[(tert-butylsulfonyl)amino]pyridin-3-yl}-1-cyclohexyl-6-ethyl-5-fluoro-1H-indole-3-carboxamide] | < 500 nM | 297 to 299 °C
N#Cc1c(-c2ccc(S(=O)(=O)NC(CF)CF)cn2)n(C2CCCC2)c2ccc(F)cc12 [compound 38, 6-(3-cyano-1-cyclopentyl-5-fluoro-1H-indol-2-yl)-N-(1,3-difluoropropan-2-yl)pyridine-3-sulfonamide] | < 500 nM | 171 to 172 °C
N#Cc1c(-c2ncc(S(=O)(=O)NC(CF)CF)cn2)n(C2CCC2)c2cc(C3CC3)ccc12 [compound 126, 2-(3-cyano-1-cyclobutyl-6-cyclopropyl-1H-indol-2-yl)-N-(1,3-difluoropropan-2-yl)pyrimidine-5-sulfonamide] | < 500 nM | 165 to 168 °C
Cc1cc2c(cc1F)c(C#N)c(-c1ccc(S(=O)(=O)NC(C)(C)C)cn1)n2C1CCCCC1 [compound 710, N-tert-butyl-6-(3-cyano-1-cyclohexyl-5-fluoro-6-methyl-1H-indol-2-yl)pyridine-3-sulfonamide] | < 500 nM | 244 to 245 °C
C[C@@H](NS(=O)(=O)c1ccc(-c2c(C#N)c3ccc(OC(F)F)cc3n2-c2ccccn2)nc1)C(F)(F)F [compound 534, 6-[3-cyano-6-(difluoromethoxy)-1-(pyridin-2-yl)-1H-indol-2-yl]-N-[(2R)-1,1,1-trifluoropropan-2-yl]pyridine-3-sulfonamide] | < 500 nM | 159 to 161 °C
Cc1ccc2c(C#N)c(-c3ccc(S(=O)(=O)N[C@@H](C)C(F)(F)F)cn3)n(-c3ccccn3)c2c1 [compound 476, 6-[3-cyano-6-methyl-1-(pyridin-2-yl)-1H-indol-2-yl]-N-[(2S)-1,1,1-trifluoropropan-2-yl]pyridine-3-sulfonamide] | < 500 nM | 199 to 203 °C
Cc1ccc2c(C#N)c(-c3ccc(S(=O)(=O)NC(CF)CF)cn3)n([C@@H]3CCOC3)c2c1 [compound 54, 6-{3-cyano-6-methyl-1-[(3R)-tetrahydrofuran-3-yl]-1H-indol-2-yl}-N-(1,3-difluoropropan-2-yl)pyridine-3-sulfonamide] | < 500 nM | 152 to 153 °C
CCc1cc2c(cc1F)c(C(N)=O)c(-c1ccc(S(=O)(=O)N[C@@H](C)C(F)(F)F)cn1)n2C1CCCC1 [compound 830, 1-cyclopentyl-6-ethyl-5-fluoro-2-(5-{[(2S)-1,1,1-trifluoropropan-2-yl]sulfamoyl}pyridin-2-yl)-1H-indole-3-carboxamide] | < 500 nM | 237 to 238 °C
Cc1c(F)cc2c(C#N)c(-c3ccc(S(=O)(=O)NC(CF)CF)cn3)n(C3CCC3)c2c1F [compound 533, 6-(3-cyano-1-cyclobutyl-5,7-difluoro-6-methyl-1H-indol-2-yl)-N-(1,3-difluoropropan-2-yl)pyridine-3-sulfonamide] | < 500 nM | 158 to 170 °C
N#Cc1c(-c2ccc(S(=O)(=O)NC(CF)CF)cn2)n(C2CCC2)c2ccc(OC(F)F)cc12 [compound 32, 6-[3-cyano-1-cyclobutyl-5-(difluoromethoxy)-1H-indol-2-yl]-N-(1,3-difluoropropan-2-yl)pyridine-3-sulfonamide] | < 500 nM | 166 to 172 °C
C[C@H](NS(=O)(=O)c1ccc(-c2c(C#N)c3ccc(CC(F)F)cc3n2C2CCC2)nc1)C(F)(F)F [compound 384, 6-[3-cyano-1-cyclobutyl-6-(2,2-difluoroethyl)-1H-indol-2-yl]-N-[(2S)-1,1,1-trifluoropropan-2-yl]pyridine-3-sulfonamide] | < 500 nM | 172 to 174 °C
CCCS(=O)(=O)Nc1ccc(-c2c(C#N)c3ccc(Oc4ncccc4C#N)cc3n2C2CCC2)nc1 [compound 272, N-(6-{3-cyano-6-[(3-cyanopyridin-2-yl)oxy]-1-cyclobutyl-1H-indol-2-yl}pyridin-3-yl)propane-1-sulfonamide] | 500 to 2000 nM | 199 to 201 °C
C[C@H](NS(=O)(=O)c1cnc(-c2c(C#N)c3ccc(F)cc3n2C2CCC2)nc1)C(F)(F)F [compound 494, 2-(3-cyano-1-cyclobutyl-6-fluoro-1H-indol-2-yl)-N-[(2S)-1,1,1-trifluoropropan-2-yl]pyrimidine-5-sulfonamide] | 2000 to 5000 nM | 223 to 225 °C
COc1ccc2c(c1)c(C#N)c(-c1ccc(S(=O)(=O)N[C@@H](C)C(F)(F)F)cn1)n2C1CCC1 [compound 453, 6-(3-cyano-1-cyclobutyl-5-methoxy-1H-indol-2-yl)-N-[(2S)-1,1,1-trifluoropropan-2-yl]pyridine-3-sulfonamide] | < 500 nM | 181 to 183 °C
CCc1cc2c(cc1F)c(C(N)=O)c(-c1ccc(NS(=O)(=O)C(C)(C)C)nc1)n2[C@@H](C)C1CC1 [compound 1083, 2-{6-[(tert-butylsulfonyl)amino]pyridin-3-yl}-1-[(1S)-1-cyclopropylethyl]-6-ethyl-5-fluoro-1H-indole-3-carboxamide] | < 500 nM | 256 to 259 °C
Cc1ccc2c(c1)c(C#N)c(-c1ccc(S(=O)(=O)N[C@H](C)C(F)(F)F)cn1)n2C(C)C [compound 485, 6-[3-cyano-5-methyl-1-(propan-2-yl)-1H-indol-2-yl]-N-[(2R)-1,1,1-trifluoropropan-2-yl]pyridine-3-sulfonamide] | < 500 nM | 167 to 173 °C
CC(C)(NS(=O)(=O)c1ccc(-c2c(C(N)=O)c3cc(F)c(OC(F)F)cc3n2C2CCCC2)nc1)C(F)(F)F [compound 863, 1-cyclopentyl-6-(difluoromethoxy)-5-fluoro-2-{5-[(1,1,1-trifluoro-2-methylpropan-2-yl)sulfamoyl]pyridin-2-yl}-1H-indole-3-carboxamide] | < 500 nM | 215 to 217 °C
Cc1ccc2c(C#N)c(-c3ccc(S(=O)(=O)N[C@@H](C)C(F)(F)F)cn3)n(C3CCC3)c2c1F [compound 421, 6-(3-cyano-1-cyclobutyl-7-fluoro-6-methyl-1H-indol-2-yl)-N-[(2S)-1,1,1-trifluoropropan-2-yl]pyridine-3-sulfonamide] | < 500 nM | 210 to 220 °C
Cc1cc2c(cc1F)c(C(N)=O)c(-c1ccc(S(=O)(=O)N[C@@H](C)C(F)(F)F)cn1)n2C1CCOCC1 [compound 769, 5-fluoro-6-methyl-1-(tetrahydro-2H-pyran-4-yl)-2-(5-{[(2S)-1,1,1-trifluoropropan-2-yl]sulfamoyl}pyridin-2-yl)-1H-indole-3-carboxamide] | < 500 nM | 261 to 264 °C
